Measurements from patent US20080248511A1, “METHODS TO QUENCH LIGHT FROM OPTICAL REACTIONS” (priority 2007, published 2008).
Where two headings read alike, the source gives them in different places.

Experiments:
firefly luciferase [1] = biological target: T1, firefly luciferase (Photinus pyralis, UniProt P08659); assay: Quaternary ammonium/phosphonium detergent screen, firefly luciferase (Example 5); assay type: biochemical; conditions: final conc. 0.03% detergent; Tergitol NP-9 present; read-out: Retained Firefly Luciferase Luminescence (%)
T1 sequence (P08659 whole entry): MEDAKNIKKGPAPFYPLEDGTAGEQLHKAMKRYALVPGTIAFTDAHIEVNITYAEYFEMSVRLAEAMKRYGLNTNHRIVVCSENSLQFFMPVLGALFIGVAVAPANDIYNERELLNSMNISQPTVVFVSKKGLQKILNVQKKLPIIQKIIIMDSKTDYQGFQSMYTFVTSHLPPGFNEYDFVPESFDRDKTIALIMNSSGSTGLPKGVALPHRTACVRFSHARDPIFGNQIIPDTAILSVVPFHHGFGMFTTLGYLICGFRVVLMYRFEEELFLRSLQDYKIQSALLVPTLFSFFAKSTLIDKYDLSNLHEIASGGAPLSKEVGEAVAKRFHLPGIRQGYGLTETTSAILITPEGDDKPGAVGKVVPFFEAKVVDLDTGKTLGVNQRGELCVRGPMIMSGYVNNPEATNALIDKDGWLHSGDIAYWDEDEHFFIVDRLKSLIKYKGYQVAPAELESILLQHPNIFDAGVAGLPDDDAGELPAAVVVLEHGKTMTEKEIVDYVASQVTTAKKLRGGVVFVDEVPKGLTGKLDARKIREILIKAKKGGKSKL

firefly luciferase [2] = biological target: T1, firefly luciferase; assay: biochemical; conditions: 0.5% detergent in Luciferase Assay Reagent; read-out: Retained Firefly Luciferase Luminescence (%)
Procedure: The retained luminescence for each luciferase was calculated by dividing the luminescence in the presence of the detergent by the luminescence in the absence of the test detergent. The selectivity value for each of the test detergents was determined by dividing the retained firefly luciferase luminescence by the retained Renilla luciferase luminescence.
A set of detergents (Table 2; Sigma-Aldrich) was added at 0.5% (from a 5% or 10% stock solution) to either Luciferase Assay Reagent (Promega) or Renilla Luciferase Assay Reagent (Promega) and allowed to equilibrate at room temperature.
The firefly luciferase and Renilla luciferase enzymes were diluted as follows. Firefly luciferase was diluted to 14 ng/ml in Phosphate Buffered Saline (PBS) containing 0.1% of the protein carrier Prionex® (Pentapharm). Renilla luciferase was diluted to 10 ng/ml in 1× Renilla Luciferase Lysis Buffer (Promega) containing 0.1% Prionex®. The Renilla Luciferase Lysis Buffer […] detergent micelles when using the Renilla Luciferase Assay Reagent. In the absence of other detergents, this prevents sequestering of coelenterazine which inhibits Renilla luciferase-mediated luminescence.
The luciferase reactions were initiated by adding 40 μl of either the firefly or Renilla luciferase enzyme solution to 200 μl of the appropriate reagent solution (firefly luciferase enzyme solution+firefly luciferase reagent solution or Renilla luciferase enzyme solution+Renilla luciferase reagent solution, respectively). The reactions were performed in an opaque white, 96-well plate and luminescence was measured for 0.5 seconds per well using a Turner BioSystems Veritas™ Microplate luminometer. The retained firefly luciferase and Renilla luciferase luminescence, as well as the selectivity values for each detergent, were calculated (Table 2).

Renilla luciferase [3] = biological target: T2, Renilla luciferase (Renilla reniformis, UniProt P27652); assay: Quaternary ammonium/phosphonium detergent screen, Renilla luciferase (Example 5); assay type: biochemical; conditions: final conc. 0.03% detergent
T2 sequence (P27652 1-311): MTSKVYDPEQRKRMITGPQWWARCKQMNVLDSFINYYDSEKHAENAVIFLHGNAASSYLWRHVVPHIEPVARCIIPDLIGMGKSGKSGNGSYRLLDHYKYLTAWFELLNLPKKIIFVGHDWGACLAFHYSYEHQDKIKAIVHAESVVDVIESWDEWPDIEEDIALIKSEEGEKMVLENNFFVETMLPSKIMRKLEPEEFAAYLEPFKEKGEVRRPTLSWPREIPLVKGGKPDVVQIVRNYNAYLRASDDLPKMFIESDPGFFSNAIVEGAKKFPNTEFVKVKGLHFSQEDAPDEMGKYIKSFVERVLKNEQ

Renilla luciferase [4] = biological target: T2, Renilla luciferase; assay: Detergent screen with Tergitol NP-9, Renilla luciferase (Example 3); assay type: biochemical
Procedure: (§1) Unless otherwise specified, materials were obtained from Sigma-Aldrich.
(§2) The firefly luciferase and Renilla luciferase enzymes were diluted as follows. Firefly luciferase was diluted to 14 ng/ml in Delbecco's Minimal Essential (DMEM) medium (Gibco/Invitrogen) containing 0.1% Prionex®. Renilla luciferase was diluted to 10 ng/ml in DMEM medium containing 0.1% Prionex®.
(§3) The luciferase reactions were initiated by adding 50 μl of the firefly luciferase or Renilla luciferase enzyme solution to 50 μl of reagent solution. The reactions were performed as described above. The retained firefly luciferase and Renilla luciferase luminescence as well as the selectivity values for each quencher were calculated (Table 3). The values listed are based on 0.06% quencher in the reagent solution.

firefly luciferase [5] = biological target: T1, firefly luciferase; assay: Quaternary ammonium/phosphonium detergent screen, firefly luciferase (Example 5); assay type: biochemical; conditions: final conc. 0.10% detergent; Tergitol NP-9 present; read-out: Retained Firefly Luciferase Luminescence (%)
Procedure: Each detergent was added at 0.2% to a reagent solution containing 50 mM Tricine pH 8.3, 3.5 mM MgSO4, 1 mM CDTA, 30 mM thiourea and 0.5% Tergitol NP-9. This solution or one not containing a detergent inhibitor was used to resuspend the Bright-Glo™ luciferin substrate (Promega).
The luciferase reactions were initiated by adding 100 μl of the firefly luciferase or Renilla luciferase enzyme solutions to 100 μl of reagent solution. The reactions were performed as described above. […] The detergent concentrations listed refer to the final concentration in the reaction.

firefly luciferase [6] = biological target: T1, firefly luciferase; assay: Detergent screen with Tergitol NP-9, firefly luciferase (Example 3); assay type: biochemical; conditions: 0.06% quencher in reagent solution; 0.5% Tergitol NP-9
Procedure: as §1, §2, §3

firefly luciferase [7] = biological target: T1, firefly luciferase; assay: Detergent titration with Tergitol NP-9, digitonin or no lysing agent, firefly luciferase (Example 4); assay type: biochemical; conditions: read-out: Relative Firefly Luc Intensity; for remaining activity at 0.0005 %: 0.0005% detergent; for remaining activity at 0.005 %: 0.0050% detergent; for remaining activity at 0.05 %: 0.0500% detergent
Procedure: For measurement of firefly luciferase-mediated luminescence, a solution containing 110 mM HEPES pH 7.5, 8 mM MgSO4, 0.05% gelatin, 7.35 ng/ml firefly luciferase (QuantiLum® Luciferase; Promega) and the content of the Steady-Glo Luciferase Substrate (Promega) at the equivalent of 1×, As in the Renilla luciferase reactions, reactions contained either no lysing agent, 0.5% Tergitol NP-9 or 20 μg/ml digitonin. The same detergents were titrated as described above and firefly luciferase-mediated luminescence was measured.

Which remaining activity at 0.03 % (firefly luciferase [1]) does the source give for `CCCCCCCCCCCC[N+](C)(C)Cc1ccccc1.[Br-]` [Benzyldimethyldodecylammonium bromide] here?
Its remaining activity at 0.03 % is 100%.

And the remaining activity at 0.5 % (firefly luciferase [2])?
The remaining activity at 0.5 % was 20.7%.

And the “Selectivity Value” (Renilla luciferase [3])?
Its value is 4.

What about the remaining activity at 0.03 % (Renilla luciferase [3]; Tergitol NP-9 present, read-out: Retained Renilla Luciferase Luminescence (%)) of the same compound?
The remaining activity at 0.03 % was 25%.

And the “Retained Renilla Luminescence (%)” value (Renilla luciferase [4]; 0.06% quencher in reagent solution, 0.5% Tergitol NP-9)?
Its value is 22%.

What about the “lowering of selectivity value relative to the screen without Tergitol NP-9” value (Renilla luciferase [4]; Tergitol NP-9 in the reagent solution) of the same compound?
Its value is “about 50 fold”.

What about the “Selectivity Value” (Renilla luciferase [4]; retained firefly / retained Renilla, 0.06% quencher, 0.5% Tergitol NP-9) of the same compound?
Its value is 5.4.

What about the remaining activity at 0.1 % (firefly luciferase [5]) of the same compound?
The remaining activity at 0.1 % was 97%.

What about the “Retained Firefly Luminescence (%)” value (firefly luciferase [6]) of the same compound?
Its value is 119%.

What about the remaining activity at 0.0005 % (firefly luciferase [7]; Dig) of the same compound?
The remaining activity at 0.0005 % was 111%.

What about the remaining activity at 0.0005 % (firefly luciferase [7]; Terg) of the same compound?
The remaining activity at 0.0005 % was 96%.

And the remaining activity at 0.0005 % (firefly luciferase [7]; Water)?
The remaining activity at 0.0005 % was 116%.

And the remaining activity at 0.005 % (firefly luciferase [7]; Dig)?
Its remaining activity at 0.005 % is 139%.

What about the remaining activity at 0.005 % (firefly luciferase [7]; Terg) of the same compound?
Its remaining activity at 0.005 % is 101%.

What about the remaining activity at 0.005 % (firefly luciferase [7]; Water) of the same compound?
Its remaining activity at 0.005 % is 155%.

What about the remaining activity at 0.05 % (firefly luciferase [7]; Dig (20 μg/ml digitonin)) of the same compound?
The remaining activity at 0.05 % was 37%.

What about the remaining activity at 0.05 % (firefly luciferase [7]; Terg (0.5% Tergitol NP-9)) of the same compound?
The remaining activity at 0.05 % was 50%.

And the remaining activity at 0.05 % (firefly luciferase [7]; Water (no lysing agent))?
The remaining activity at 0.05 % was 79%.
